The nature of data set [1]: acute toxicity in mice after intraperitoneal administration in rape oil. Particulars: mouse, in vivo, ip.
The test system of a further data set is papillomas. In words: papilloma test (tumors induced with dimethyl-benzanthracene and croton oil). The format is in vivo. Particulars: mice, intraperitoneal, 400 mg/kg/week, within 2 weeks. Here is the method:
The polyene compounds of formula I are useful in the topical and systemic prophylaxis and treatment of benign and malignant neoplasias and premalignant lesions. The tumor-inhibiting activity of the polyene compounds of the invention is significant. […] The diameter of such papillomas in mice decreased by 54% within 2 weeks upon the intraperitoneal administration of 3,7-dimethyl-9-(4-methoxy-2,3,6-trimethyl-phenyl)-nona-2,4,6-trien-1-oic acid at a dosage of 400 mg/kg/week.

Bounds are passed on as bounds.

A word on the LD50: it is the dose at which mortality reaches 50%.

In data set [1], `COc1cc(C)c(CC/C(C)=C/C=C/C(C)=C/C(=O)O)c(C)c1C` [3,7-dimethyl-9-(4-methoxy-2,3,6-trimethyl-phenyl)-nona-2,4,6-trien-1-oic acid] gave an LD50 of 1400 mg/kg, an LD50 at 24 h of more than 4000 mg/kg, an LD50 at 240 h of 1400 mg/kg and an LD50 at 480 h of 1400 mg/kg. Moreover, the “decrease in diameter of papillomas” value in the data set on papillomas is recorded as 54%.

For the origin of these results see patent publication US4132723A, “Substituted phenyl- or cyclohex-1-en-1-yl-3,7-demethyl-nona-2,4,6-trienoic acids and derivatives thereof” (Hoffmann-La Roche Inc., priority 1973, dated 1979).
